# Experimental data as given in publication PMC8387461, “T cell receptor recognition of hybrid insulin peptides bound to HLA-DQ8” (Nature Communications, 2021).
# Tests used:
# SKW-3 A2.13 TCR cells = test: CD69 upregulation, SKW-3 A2.13 TCR cells; format: cell-based, human; conditions: for MFI CD69: exp5
# Experimental: (§1) For TCR transduced SKW-3 T cell lines (SKW-3-TCR), response to antigen was determined using flow cytometry to assess the level of upregulation of the T cell activation marker CD69. One hundred thousand BLCL 9031 cells (HLA-DQ8 + : HLA-DQA*03:01:01, HLA-DQB1*03:02) as APCs were incubated at 37 °C, 5% CO2 for 24 h with increasing concentrations of synthesised HIP ([…]; GLBiochem) or native C-peptide ([…]; GLBiochem) or 50 μg DQ8-glia-α1 (control) in 96 well round-bottomed plates. To confirm HLA-DQ8-restriction, 2 μg/ml (SKW-3-ET672-1) or 50 μg/ml (all other SKW-3-TCR cell lines) C-peptide or HIP pulsed BLCL 9031 cells were blocked with a final concentration of 20 μg/ml anti-HLA-DQ monoclonal antibody (clone SPV-L3) for 3 h before stimulation (i.e. before the addition of SKW-3-TCR cell lines). T-cell activation assay were performed by mixing 1 × 10^5 SKW-3-TCR cells, SKW-3 parental cells (control) or SP3.4 (HLA-DQ8-glia-α1 restricted T cell line; control) cells with the peptide-pulsed BLCL 9031 cells or with 5 μl anti-CD3/CD28 dynabeads (Thermo Fisher Scientific) (control) at 37 °C, 5% CO2 for 20 h before antibody staining. The activated induced SKW-3-TCR T cells were washed twice with FACS buffer (Phosphate buffered saline, 10% Fetal Calf Serum (FCS; Merck)) (350 g, 5 min), and stained a mixture of 1:100 diluted V450 mouse anti-human CD3 (clone UCHT1, BD Biosciences) and APC Mouse Anti-Human CD69 (Clone FN50, BD Biosciences) for 1 h on ice in the dark. The samples were washed twice with PBS buffer (350 g, 5 min) to remove excess antibodies. Afterward, the samples were stained for live/dead cells with Zombie NIR (Biolegend) for 30 min at RT in the dark before being washed 6 times with FACS buffer (350 g, 5 min). Before data acquisition, the samples were resuspended in 100 μl of FACS buffer and analysed via flow cytometry (LSR II; BD Biosciences; BD FACSDiva-8.0.1 software). Collected data were analysed using Flowjo v10.6.0 (FlowJo), and then Prism 9 (GraphPad Software). […] Using these settings, the median fluorescence intensity (MFI) corresponding to the relative level of CD69 expressed on the SKW-3-TCR.TCR cell lines was determined using Flowjo v10.6.0 software. The MFI of CD69 were analysed by using Prism 9 (GraphPad Software). Three to six independent experiments were conducted, and all sample were performed in duplicates. Statistical significance was determined using P-values generated by t-test or one-way ANOVA multiple comparison of the MFI of no-peptide-stimulated SKW-3-TCR T cells versa the MFI of peptide-stimulated SKW-3-TCR T cells.
# (§2) Supplementary Figure 1. Antigen reactivity of T cells transduced with TCRs isolated from T1D patient clones and recent onset T1D patient PBMCs. a, b Expression of CD69 on the surface of TCR transduced SKW3 cell lines stimulated overnight with C-peptide-p ulsed BLCL 9031 (top panel), or HIP-p ulsed BLCL 9031 (bottom panel). The SKW3 cell lines transduced with a TCRs isolated from primary T1D T clones and b TCRs isolated from recent onset T1D patient PBMCs (TCR name indicated above the graphs), were cultured with BLCL 9031 (no peptide) or with serial diluted concentration of peptide as indicated (grey), or 50 µg/ml C-peptide/HIP-pulsed BLCL 9031 blocked by anti-H LA-D Q mAb (clone SPV-L3; 20 µg/ml) (black), or 50 µg/ml glia-α1-p ulsed BLCL 9031 (purple; control), or 50 µg/ml C-peptide/HIP peptide only (cyan; control), or T cell lines alone (pink; control). Due to the strong reactivity of the SKW-T CR E672-1 cell line to HIP, only 2 µg of HIP was used in anti-HLA-D Q mAb blocking experiments. All samples were performed in duplicates and the black dots are presented as the mean fluorescence intensity (MFI) of average of duplicated values from three to six (n=3, n=4, n=5 or n=6) independent experiments. […]
# (§3) expression. The fold increase in MFI CD69 expression was calculated by dividing the average MFI CD69 from each sample by the average MFI CD69 from BLCL 9031 (no […]
# (§4) peptide). […]
# SKW-3 A5.5 TCR cells = test: CD69 upregulation, SKW-3 A5.5 TCR cells; format: cell-based, human;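 on Geometric CD3: measured on live single GFP+ RFP+ cells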
# Experimental: as §1, §2, §3, §4
# [1] = exp4, T cell +pep, 50 ug, replicate 1
# [2] = exp4, T cell +pep, 50 ug, replicate 2
# [3] = exp4, block, 50 ug, replicate 1
# [4] = exp4, block, 50 ug, replicate 2
# [5] = exp5, T cell +pep, 50 ug, replicate 1
# [6] = exp5, T cell +pep, 50 ug, replicate 2
# [7] = exp5, block, 50 ug, replicate 1
# [8] = exp5, block, 50 ug, replicate 2
# [9] = CD69 MFI, flow cytometry, peptide-pulsed BLCL 9031, 20 h
substance,measurement,setting,value
Cpeptide,MFI CD69,"SKW-3 A2.13 TCR cells; 0.016 ug, replicate 1",1218
same,MFI CD69,"SKW-3 A2.13 TCR cells; 0.016 ug, replicate 2",1366
same,MFI CD69,"SKW-3 A2.13 TCR cells; 0.08 ug, replicate 1",1349
same,MFI CD69,"SKW-3 A2.13 TCR cells; 0.08 ug, replicate 2",1478
same,MFI CD69,"SKW-3 A2.13 TCR cells; 0.4 ug, replicate 1",1535
same,MFI CD69,"SKW-3 A2.13 TCR cells; 0.4 ug, replicate 2",1892
same,MFI CD69,"SKW-3 A2.13 TCR cells; 2 ug, replicate 1",1776
same,MFI CD69,"SKW-3 A2.13 TCR cells; 2 ug, replicate 2",2613
same,MFI CD69,"SKW-3 A2.13 TCR cells; 10 ug, replicate 1",4442
same,MFI CD69,"SKW-3 A2.13 TCR cells; 10 ug, replicate 2",4296
same,MFI CD69,"SKW-3 A2.13 TCR cells; 50 ug, replicate 1",5931
same,MFI CD69,"SKW-3 A2.13 TCR cells; 50 ug, replicate 2",5830
same,MFI CD69,"SKW-3 A2.13 TCR cells; 100 ug, replicate 1",5697
same,MFI CD69,"SKW-3 A2.13 TCR cells; 100 ug, replicate 2",6898
same,MFI CD69,"SKW-3 A2.13 TCR cells; T cell +pep, 50 ug, replicate 1",712
same,MFI CD69,"SKW-3 A2.13 TCR cells; T cell +pep, 50 ug, replicate 2",880
same,MFI CD69,"SKW-3 A2.13 TCR cells; block, 50 ug, replicate 1",796
same,Geometric CD3,"SKW-3 A5.5 TCR cells; exp4, 0.016 ug, replicate 1",970
same,MFI CD69,"SKW-3 A5.5 TCR cells; exp4, 0.016 ug, replicate 1",898
same,Geometric CD3,"SKW-3 A5.5 TCR cells; exp4, 0.016 ug, replicate 2",979
same,MFI CD69,"SKW-3 A5.5 TCR cells; exp4, 0.016 ug, replicate 2",906
same,Geometric CD3,"SKW-3 A5.5 TCR cells; exp4, 0.08 ug, replicate 1",1058
same,MFI CD69,"SKW-3 A5.5 TCR cells; exp4, 0.08 ug, replicate 1",987
same,Geometric CD3,"SKW-3 A5.5 TCR cells; exp4, 0.08 ug, replicate 2",1030
same,MFI CD69,"SKW-3 A5.5 TCR cells; exp4, 0.08 ug, replicate 2",964
same,Geometric CD3,"SKW-3 A5.5 TCR cells; exp4, 0.4 ug, replicate 1",1103
same,MFI CD69,"SKW-3 A5.5 TCR cells; exp4, 0.4 ug, replicate 1",1037
same,Geometric CD3,"SKW-3 A5.5 TCR cells; exp4, 0.4 ug, replicate 2",1058
same,MFI CD69,"SKW-3 A5.5 TCR cells; exp4, 0.4 ug, replicate 2",984
same,Geometric CD3,"SKW-3 A5.5 TCR cells; exp4, 2 ug, replicate 1",1233
same,MFI CD69,"SKW-3 A5.5 TCR cells; exp4, 2 ug, replicate 1",1175
same,Geometric CD3,"SKW-3 A5.5 TCR cells; exp4, 2 ug, replicate 2",1197
same,MFI CD69,"SKW-3 A5.5 TCR cells; exp4, 2 ug, replicate 2",1130
same,Geometric CD3,"SKW-3 A5.5 TCR cells; exp4, 10 ug, replicate 1",1614
same,MFI CD69,"SKW-3 A5.5 TCR cells; exp4, 10 ug, replicate 1",1582
same,Geometric CD3,"SKW-3 A5.5 TCR cells; exp4, 10 ug, replicate 2",1577
same,MFI CD69,"SKW-3 A5.5 TCR cells; exp4, 10 ug, replicate 2",1557
same,Geometric CD3,"SKW-3 A5.5 TCR cells; exp4, 50 ug, replicate 1",2018
same,MFI CD69,"SKW-3 A5.5 TCR cells; exp4, 50 ug, replicate 1",2047
same,Geometric CD3,"SKW-3 A5.5 TCR cells; exp4, 50 ug, replicate 2",1694
same,MFI CD69,"SKW-3 A5.5 TCR cells; exp4, 50 ug, replicate 2",1685
same,Geometric CD3,"SKW-3 A5.5 TCR cells; exp4, 100 ug, replicate 1",3490
same,MFI CD69,"SKW-3 A5.5 TCR cells; exp4, 100 ug, replicate 1",3626
same,Geometric CD3,"SKW-3 A5.5 TCR cells; exp4, 100 ug, replicate 2",3657
same,MFI CD69,"SKW-3 A5.5 TCR cells; exp4, 100 ug, replicate 2",3824
same,Geometric CD3,SKW-3 A5.5 TCR cells; [1],739
same,MFI CD69,SKW-3 A5.5 TCR cells; [1],670
same,Geometric CD3,SKW-3 A5.5 TCR cells; [2],745
same,MFI CD69,SKW-3 A5.5 TCR cells; [2],679
same,Geometric CD3,SKW-3 A5.5 TCR cells; [3],1084
same,MFI CD69,SKW-3 A5.5 TCR cells; [3],1022
same,Geometric CD3,SKW-3 A5.5 TCR cells; [4],1068
same,MFI CD69,SKW-3 A5.5 TCR cells; [4],1007
same,Geometric CD3,"SKW-3 A5.5 TCR cells; exp5, 0.016 ug, replicate 1",1160
same,MFI CD69,"SKW-3 A5.5 TCR cells; exp5, 0.016 ug, replicate 1",1101
same,Geometric CD3,"SKW-3 A5.5 TCR cells; exp5, 0.016 ug, replicate 2",1175
same,MFI CD69,"SKW-3 A5.5 TCR cells; exp5, 0.016 ug, replicate 2",1127
same,Geometric CD3,"SKW-3 A5.5 TCR cells; exp5, 0.08 ug, replicate 1",1165
same,MFI CD69,"SKW-3 A5.5 TCR cells; exp5, 0.08 ug, replicate 1",1110
same,Geometric CD3,"SKW-3 A5.5 TCR cells; exp5, 0.08 ug, replicate 2",1145
same,MFI CD69,"SKW-3 A5.5 TCR cells; exp5, 0.08 ug, replicate 2",1084
same,Geometric CD3,"SKW-3 A5.5 TCR cells; exp5, 0.4 ug, replicate 1",1217
same,MFI CD69,"SKW-3 A5.5 TCR cells; exp5, 0.4 ug, replicate 1",1166
same,Geometric CD3,"SKW-3 A5.5 TCR cells; exp5, 0.4 ug, replicate 2",1219
same,MFI CD69,"SKW-3 A5.5 TCR cells; exp5, 0.4 ug, replicate 2",1163
same,Geometric CD3,"SKW-3 A5.5 TCR cells; exp5, 2 ug, replicate 1",1325
same,MFI CD69,"SKW-3 A5.5 TCR cells; exp5, 2 ug, replicate 1",1295
same,Geometric CD3,"SKW-3 A5.5 TCR cells; exp5, 2 ug, replicate 2",1288
same,MFI CD69,"SKW-3 A5.5 TCR cells; exp5, 2 ug, replicate 2",1227
same,Geometric CD3,"SKW-3 A5.5 TCR cells; exp5, 10 ug, replicate 1",1582
same,MFI CD69,"SKW-3 A5.5 TCR cells; exp5, 10 ug, replicate 1",1562
same,Geometric CD3,"SKW-3 A5.5 TCR cells; exp5, 10 ug, replicate 2",1544
same,MFI CD69,"SKW-3 A5.5 TCR cells; exp5, 10 ug, replicate 2",1512
same,Geometric CD3,"SKW-3 A5.5 TCR cells; exp5, 50 ug, replicate 1",2599
same,MFI CD69,"SKW-3 A5.5 TCR cells; exp5, 50 ug, replicate 1",2696
same,Geometric CD3,"SKW-3 A5.5 TCR cells; exp5, 50 ug, replicate 2",2645
same,MFI CD69,"SKW-3 A5.5 TCR cells; exp5, 50 ug, replicate 2",2725
same,Geometric CD3,"SKW-3 A5.5 TCR cells; exp5, 100 ug, replicate 1",3392
same,MFI CD69,"SKW-3 A5.5 TCR cells; exp5, 100 ug, replicate 1",3527
same,Geometric CD3,"SKW-3 A5.5 TCR cells; exp5, 100 ug, replicate 2",3273
same,MFI CD69,"SKW-3 A5.5 TCR cells; exp5, 100 ug, replicate 2",3433
same,Geometric CD3,SKW-3 A5.5 TCR cells; [5],840
same,MFI CD69,SKW-3 A5.5 TCR cells; [5],793
same,Geometric CD3,SKW-3 A5.5 TCR cells; [6],856
same,MFI CD69,SKW-3 A5.5 TCR cells; [6],819
same,Geometric CD3,SKW-3 A5.5 TCR cells; [7],761
same,MFI CD69,SKW-3 A5.5 TCR cells; [7],694
same,Geometric CD3,SKW-3 A5.5 TCR cells; [8],846
same,MFI CD69,SKW-3 A5.5 TCR cells; [8],770
GQVELGGGNAVEVLK [HIP],sensitivity to HIP versus C-peptide,SKW-3 A2.13 TCR cells; [9],five fold more sensitive to HIP than C-peptide
same,sensitivity to HIP over C-peptide,SKW-3 A5.5 TCR cells; [9],~ 3000 fold
